What all share (assay type): cell-based
The target of test [1] is T1, LXRβ ligand-binding domain (LBD) (Homo sapiens, UniProt P55055, DUP175-175).
T1 construct: LXRβ (amino acids 156-461); expressed in transfected cells; host or cells: HEK293
T1 sequence (P55055 with tags, fused parts or gaps DUP175-175): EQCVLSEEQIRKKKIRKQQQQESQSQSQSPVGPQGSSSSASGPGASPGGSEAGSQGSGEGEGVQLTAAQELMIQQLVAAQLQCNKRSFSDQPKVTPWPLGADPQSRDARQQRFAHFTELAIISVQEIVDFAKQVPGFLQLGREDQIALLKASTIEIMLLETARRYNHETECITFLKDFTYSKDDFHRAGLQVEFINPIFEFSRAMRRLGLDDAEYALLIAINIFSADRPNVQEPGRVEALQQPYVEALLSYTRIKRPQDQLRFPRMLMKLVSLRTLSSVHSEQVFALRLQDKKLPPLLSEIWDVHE
As to the kind of experiment: LXR Gal4 reporter transient transfection assay (M2H), Gal4β LBD. As to conditions: HEK293 cells; read-out: M2H Gal4β LBD activity range (EC50). A digest of the protocol: (§1)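 Mammalian two-hybrid in HEK293 cells transiently transfected with LXRα/β full-length or LBD fused to NFkB activation domain, plus GAL4-DBD fusions of SRC1 coactivator or NCoR corepressor domains and a GAL4-responsive firefly luciferase reporter. Compounds added 4 h post-transfection (vehicle ≤0.2% DMSO), 16 h incubation; firefly luciferase normalized to Renilla.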

The target in test [2] is T2, LXRα full length (FL) (Homo sapiens, UniProt Q13133).
T2 construct: the full length (FL) proteins of LXRα (amino acids 1-447); NP005684; expressed in transfected cells; host or cells: HEK293
T2 sequence (Q13133 1-447): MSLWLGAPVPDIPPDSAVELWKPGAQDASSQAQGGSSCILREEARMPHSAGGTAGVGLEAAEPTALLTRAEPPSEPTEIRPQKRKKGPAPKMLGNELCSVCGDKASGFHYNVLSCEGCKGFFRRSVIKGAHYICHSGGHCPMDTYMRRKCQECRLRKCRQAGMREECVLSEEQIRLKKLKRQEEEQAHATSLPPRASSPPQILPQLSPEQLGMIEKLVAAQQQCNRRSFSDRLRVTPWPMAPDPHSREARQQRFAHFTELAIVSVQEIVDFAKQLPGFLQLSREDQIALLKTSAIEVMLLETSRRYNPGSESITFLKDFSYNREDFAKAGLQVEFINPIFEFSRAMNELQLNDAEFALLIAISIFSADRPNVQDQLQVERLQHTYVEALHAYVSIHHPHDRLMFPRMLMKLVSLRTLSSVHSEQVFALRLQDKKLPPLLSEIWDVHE
As to the kind of experiment: LXR Gal4 reporter transient transfection assay (M2H), Gal4α FL. As to conditions: HEK293 cells; read-out: M2H Gal4α FL activity range (EC50). A digest of the protocol: as §1

Test [3] has as its target T3, LXRβ full length (FL) (Homo sapiens, UniProt P55055, DUP175-175).
T3 construct: the full length (FL) proteins of LXRα (amino acids 1-447); NP005684; NP009052; expressed in transfected cells; host or cells: HEK293
T3 sequence (P55055 with tags, fused parts or gaps DUP175-175): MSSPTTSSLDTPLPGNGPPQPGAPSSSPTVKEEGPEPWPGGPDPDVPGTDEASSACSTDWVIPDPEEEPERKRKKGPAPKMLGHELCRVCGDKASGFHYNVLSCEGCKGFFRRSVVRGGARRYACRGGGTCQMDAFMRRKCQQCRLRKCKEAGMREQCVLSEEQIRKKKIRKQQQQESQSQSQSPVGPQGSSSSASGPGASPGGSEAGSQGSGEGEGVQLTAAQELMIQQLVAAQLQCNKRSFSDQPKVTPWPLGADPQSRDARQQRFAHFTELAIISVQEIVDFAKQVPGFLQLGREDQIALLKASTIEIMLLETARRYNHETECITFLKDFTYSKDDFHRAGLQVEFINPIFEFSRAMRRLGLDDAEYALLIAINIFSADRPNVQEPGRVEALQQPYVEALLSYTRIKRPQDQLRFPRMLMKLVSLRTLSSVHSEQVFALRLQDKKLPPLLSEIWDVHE
As to the kind of experiment: LXR Gal4 reporter transient transfection assay (M2H), Gal4β FL. The conditions noted are these: HEK293 cells; read-out: M2H Gal4β FL activity range (EC50). A digest of the protocol:
as §1

Some results are limits rather than exact numbers.

What is called EC50 is the concentration needed to bring the measured effect to its halfway point.

On to `Cc1cc(C)c(S(=O)(=O)N(Cc2ccc(-c3cccc(CC(=O)O)c3)cc2)C(C)c2ccc(C(F)(F)F)o2)c(C)c1` (stereo not shown) [2/2], for which the EC50 in test [1], in test [2] and in test [3] was under 100 nM in each case.
As for `Cc1cc(C)c(S(=O)(=O)N(Cc2ccc(-c3cccc(S(=O)(=O)C(C)(C)C(=O)O)c3)cc2)Cc2ccc(C(F)(F)F)o2)c(C)c1` [5/2], the concentration for a half-maximal effect (EC50) in test [1], in test [2] and in test [3] was 100 to 1000 nM in each case.
On to `Cc1cc(C)c(S(=O)(=O)N(Cc2ccc(-c3cccc(C(C)(C)C(=O)O)c3)cc2)Cc2ccc(C(F)(F)F)o2)c(C)c1` [7/5], for which the EC50 in test [1], in test [2] and in test [3] was under 100 nM each time.
In the case of `COc1cc(-c2cccc(C(C)(C)C(=O)O)c2)ccc1CN(Cc1ccc(C(F)(F)F)o1)S(=O)(=O)c1c(C)cc(C)cc1C` [10/4], the concentration giving a half-maximal response (EC50) in test [1], in test [2] and in test [3] was under 100 nM in each case.
Consider `Cc1cc(C)c(S(=O)(=O)N(Cc2ccc(C(F)(F)F)o2)Cc2ccc(-c3cccc(C(C)(C)C(=O)O)c3)cc2Cl)c(C)c1` [10/5], for which the concentration for a half-maximal effect (EC50) in test [1], in test [2] and in test [3] was under 100 nM each time.
As for `Cc1ccc2ccccc2c1S(=O)(=O)N(Cc1ccc(-c2cccc(S(=O)(=O)CC(=O)O)c2)cc1)Cc1cccc(C(F)(F)F)c1` [11/19], the EC50 in test [2] and in test [3] was 100 to 1000 nM in each case.
Turning to `Cc1cc(C)c(S(=O)(=O)N(Cc2ccc(-c3cccc(CC(=O)O)c3)cc2)Cc2ccc(C(F)(F)F)o2)c(C)c1` [Example 2, 2-(4′-(((2,4,6-Trimethyl-N-((5-(trifluoromethyl)furan-2-yl)methyl)phenyl)sulfonamido)methyl)-[1,1′-biphenyl]-3-yl)acetic acid], the EC50 in test [1], in test [2] and in test [3] was under 100 nM each time.
For the compound `Cc1cc(C)c(S(=O)(=O)N(Cc2ccc(-c3cccc(S(=O)(=O)CC(=O)O)c3)cc2)Cc2ccc(C(F)(F)F)o2)c(C)c1` [Example 5, 2-((4′-(((2,4,6-Trimethyl-N-((5-(trifluoromethyl)furan-2-yl)methyl)phenyl)sulfonamido)methyl)-[1,1′-biphenyl]-3-yl)sulfonyl)acetic acid], the concentration for a half-maximal effect (EC50) is 1000 to 10000 nM in test [2] and 100 to 1000 nM in test [3].
With `Cc1ccc2ccccc2c1S(=O)(=O)N(Cc1ccc(-c2cccc(C(C)(C)C(=O)O)c2)cc1)Cc1ccc(C(F)(F)F)o1` [Example 24, 2-Methyl-2-(4′-(((2-methyl-N-((5-(trifluoromethyl)furan-2-yl)methyl)naphthalene)-1-sulfonamido)methyl)-[1,1′-biphenyl]-3-yl)propanoic acid], the half-maximal effective concentration (EC50) in test [1], in test [2] and in test [3] was under 100 nM throughout.
In the case of `Cc1cc(C)c(S(=O)(=O)N(Cc2ccc(-c3cc(F)c(CO)c(S(C)(=O)=O)c3)cc2)Cc2ccc(C(F)(F)F)o2)c(C)c1` [Example C3/2], the 50% effective concentration (EC50) in test [1], in test [2] and in test [3] was under 100 nM throughout.
